Molecular target: Kynurenine 3-monooxygenase (Homo sapiens, UniProt O15229)
Experiment: Inhibition of kynurenine monooxygenase (unknown origin) by MS rapidfire assay

Kynurenine 3-monooxygenase, sequence (O15229 whole entry): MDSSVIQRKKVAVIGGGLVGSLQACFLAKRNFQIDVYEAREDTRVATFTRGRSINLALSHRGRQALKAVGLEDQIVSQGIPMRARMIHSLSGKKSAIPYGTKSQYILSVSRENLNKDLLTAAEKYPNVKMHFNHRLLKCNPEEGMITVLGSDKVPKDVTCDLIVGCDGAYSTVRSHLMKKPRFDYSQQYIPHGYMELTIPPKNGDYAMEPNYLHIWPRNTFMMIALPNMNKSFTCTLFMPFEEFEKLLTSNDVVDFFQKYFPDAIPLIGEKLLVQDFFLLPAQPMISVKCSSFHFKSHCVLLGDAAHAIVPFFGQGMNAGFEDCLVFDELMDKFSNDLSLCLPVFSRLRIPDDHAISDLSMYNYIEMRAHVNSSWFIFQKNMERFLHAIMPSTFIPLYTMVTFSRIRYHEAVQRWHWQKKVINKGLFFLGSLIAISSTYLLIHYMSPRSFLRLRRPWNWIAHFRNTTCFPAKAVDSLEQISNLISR

| IC50 [µM] | SMILES |
| --- | --- |
| < 0.794 | Cn1ccnc1COc1cc2oc(=O)n(CCC(=O)O)c2cc1Cl |
| < 0.794 | C[C@@H](Oc1cc2oc(=O)n(CCC(=O)O)c2cc1Cl)c1cccnn1 |
